Values after ≈ are worked out from the molar mass of the structure shown. Where two headings read alike, the source gives them in different places.
Legend:
Salm.typh. R 172 = assay: agar serial dilution test; assay type: cell-based; settings: 24 h, read-out: minimal inhibitory concentration (MIC)
Prot.mirab. A 1200 = assay: agar serial dilution test; assay type: cell-based, Proteus mirabilis; settings: Proteus mirabilis, 24 h, agar serial dilution, 24 hours, 37° C.; read-out: minimal inhibitory concentration (MIC)
Dipl.pneum. L 54 = assay: agar serial dilution test; assay type: cell-based, Diplococcus pneumoniae; settings: Streptococcus pneumoniae, read-out: minimal inhibitory concentration (MIC)
Staph.aureus A 2000 [1] = assay: micro serial dilution test; assay type: cell-based, Staphylococcus aureus; settings: Staphylococcus aureus, A2000, 18 h, micro serial dilution (in brackets), about 18 hours, 30° C. or 37° C.; read-out: minimal inhibitory concentration (MIC)
Prot.mirab. L 93 = assay: agar serial dilution test; assay type: cell-based, Proteus mirabilis; settings: Proteus mirabilis
Kleb.pneum. A 809 = assay: agar serial dilution test; assay type: cell-based, Klebsiella pneumoniae; settings: Klebsiella pneumoniae, read-out: minimal inhibitory concentration (MIC)
Haem.Suis A 2096 = assay: micro serial dilution test; assay type: cell-based; settings: micro serial dilution (in brackets), about 18 hours, 30° C. or 37° C.; read-out: minimal inhibitory concentration (MIC)
[2] = test system: Pseud.aerug. Wyeth A 1058; assay: agar serial dilution test; assay type: cell-based; settings: read-out: minimal inhibitory concentration (MIC)
Esch.coli U 20 = assay: agar serial dilution test; assay type: cell-based, Escherichia coli; settings: Escherichia coli
Prot.rettg. A 821 = assay: agar serial dilution test; assay type: cell-based, Proteus rettgeri; settings: Providencia rettgeri, 24 h, read-out: minimal inhibitory concentration (MIC)
Staph.aureus A 355 [3] = assay: agar serial dilution test; settings: Staphylococcus aureus, A355, 24 h
Actinob.equ. T 3 = assay: agar serial dilution test; assay type: cell-based; settings: 24 hours, 37° C., read-out: minimal inhibitory concentration (MIC)
Strep. faec. L 80 = assay: agar serial dilution test; assay type: cell-based, Streptococcus faecalis; settings: Enterococcus faecalis, read-out: minimal inhibitory concentration (MIC)
Pseud.aerug. 2396 = assay: agar serial dilution test; assay type: cell-based; settings: read-out: minimal inhibitory concentration (MIC)
Prot.morg. 2241 = assay: agar serial dilution test; assay type: cell-based; settings: 24 h, read-out: minimal inhibitory concentration (MIC)
Strep.haem A 1088 = assay: agar serial dilution test; assay type: cell-based, Streptococcus haemolyticus; settings: Streptococcus, A1088, 24 hours, 37° C., read-out: minimal inhibitory concentration (MIC)
Past.multo. A 723 = assay: agar serial dilution test; assay type: cell-based, Pasteurella multocida; settings: Pasteurella multocida, read-out: minimal inhibitory concentration (MIC)
Staph.aureus A 2000 [4] = assay: agar serial dilution test; assay type: cell-based, Staphylococcus aureus; settings: Staphylococcus aureus, A2000, 24 h, read-out: minimal inhibitory concentration (MIC)
Pseud.aerug. H 10 = assay: agar serial dilution test; assay type: cell-based; settings: read-out: minimal inhibitory concentration (MIC)
Staph.aureus A 321 = assay: agar serial dilution test; assay type: cell-based, Staphylococcus aureus; settings: Staphylococcus aureus, A321, 24 h, read-out: minimal inhibitory concentration (MIC)
Bruc. Suis A 2126 = assay: agar serial dilution test; assay type: cell-based; settings: Brucella suis, 24 h, read-out: minimal inhibitory concentration (MIC)
Prot.mirab. H 3 = assay: agar serial dilution test; assay type: cell-based, Proteus mirabilis; settings: Proteus mirabilis
Salm.dubl. P 43 = assay: agar serial dilution test; assay type: cell-based, Salmonella dublin; settings: Salmonella enterica, read-out: minimal inhibitory concentration (MIC)
Staph.aureus A 355 [5] = assay: micro serial dilution test; assay type: cell-based, Staphylococcus aureus; settings: Staphylococcus aureus, A355; micro serial dilution (in brackets), about 18 hours, 30° C. or 37° C.; penicillinase-producing strain; read-out: minimal inhibitory concentration (MIC)
Staph.aureus A 2001 [6] = assay: agar serial dilution test; assay type: cell-based, Staphylococcus aureus; settings: Staphylococcus aureus, A2001, 24 h, agar serial dilution, 24 hours, 37° C.; read-out: minimal inhibitory concentration (MIC)
Bac.Subt.ATCC 6633 = assay: agar serial dilution test; assay type: cell-based, Bacillus subtilis; settings: Bacillus subtilis, ATCC6633, 24 h, read-out: minimal inhibitory concentration (MIC)
Staph.aureus A 2001 [7] = assay: micro serial dilution test; assay type: cell-based, Staphylococcus aureus; settings: Staphylococcus aureus, A2001, 18 h, micro serial dilution (in brackets), about 18 hours, 30° C. or 37° C.; read-out: minimal inhibitory concentration (MIC)
Bruc.melit. A 488 = assay: microbe, parasite or virus in culture; assay type: cell-based; settings: Brucella melitensis, 24 h, read-out: minimal inhibitory concentration (MIC)
Strep.haem. A 266 = assay: agar serial dilution test; assay type: cell-based, Streptococcus haemolyticus; settings: Streptococcus, read-out: minimal inhibitory concentration (MIC)
Haem.infl. A 1030 [8] = assay: micro serial dilution test; assay type: cell-based; settings: 18 h, read-out: minimal inhibitory concentration (MIC)
Shig.equir. T 3 = assay: agar serial dilution test; assay type: cell-based; settings: 24 h, 37° C., read-out: minimal inhibitory concentration (MIC)
Haem.infl. A 1030 [9] = assay: agar serial dilution test; assay type: cell-based; settings: 24 hours, 37° C., read-out: minimal inhibitory concentration (MIC)
Salm.typh. R 127 = assay: micro serial dilution test; assay type: cell-based; settings: micro serial dilution (in brackets), about 18 hours, 30° C. or 37° C.; read-out: minimal inhibitory concentration (MIC)
Source text: Two drops of a stock solution of the test compound (antibiotic) in a known concentration were brought into the first hole of a test plate with 9 numbered holes with a sterile Pasteur pipette. After rinsing this pipette three times with a physiological NaCl-solution, two drops of a stock solution of the test organism in a culture medium were brought in all the holes except for hole 8. In the first hole, the solution of the tested compound had been half diluted, then by stirring the liquid in the first hole and adding two drops of this mixture to the second hole and so on until hole 8, dilutions of the test compound solution were obtained in geometrical progression. The hole 9 contained no antibiotic and served for checking the growth of the testogranism in a blank medium. The test plate was incubated at 30° C. or 37° C. for about 18 hours.

pKa determined in water = assay type: physicochemical
[10] = agar serial dilution, 24 hours, 37° C.
[11] = agar serial dilution, 24 hours, 37° C., read-out: minimal inhibitory concentration (MIC)
[12] = U20, agar serial dilution, 24 hours, 37° C., read-out: minimal inhibitory concentration (MIC)
[13] = read-out: minimal inhibitory concentration (MIC), agar serial dilution, 24 hours, 37° C., penicillinase-producing strain
[14] = 24 h, read-out: minimal inhibitory concentration (MIC), agar serial dilution, 24 hours, 37° C.

Row | Structure (SMILES) | MIC (Dipl.pneum. L 54; [10]) [µg/mL] | MIC (Prot.mirab. L 93; [11]) [µg/mL] | MIC (Kleb.pneum. A 809; [10]) [µg/mL] | MIC [2, 10] [µg/mL] | MIC (Esch.coli U 20; [12]) [µg/mL] | MIC (Prot.rettg. A 821; [10]) [µg/mL] | MIC (Staph.aureus A 355 [3]; [13]) [µg/mL] | MIC (Strep. faec. L 80; [10]) [µg/mL] | MIC (Pseud.aerug. 2396; [10]) [µg/mL] | MIC (Prot.morg. 2241; [10]) [µg/mL] | MIC (Past.multo. A 723; [10]) [µg/mL] | MIC (Staph.aureus A 2000 [4]; [10]) [µg/mL] | MIC (Pseud.aerug. H 10; [10]) [µg/mL] | MIC (Staph.aureus A 321; [10]) [µg/mL] | MIC (Prot.mirab. H 3; [11]) [µg/mL] | MIC (Salm.dubl. P 43; [10]) [µg/mL] | MIC (Staph.aureus A 2001 [6]) [µg/mL] | MIC (Bac.Subt.ATCC 6633; [10]) [µg/mL] | MIC (Bruc.melit. A 488) [µg/mL] | MIC (Shig.equir. T 3) [µg/mL] | also measured
1 | CCc1nc(CC(=O)N[C@@H]2C(=O)N3C(C(=O)O)=C(CSc4nnc(C)s4)CS[C@H]23)no1 [41 A, Sodium 7-[5-ethyl-1,2,4-oxadiazol-3-yl-acetamido]-3-[5-methyl-1,3,4-thiadiazol-2-yl-mercaptomethyl]-3-cephem-4-carboxylate] | 0.75 | 6 | 6 | 100 | 3 | 1.5 | 0.75 | 50 | 100 | 100 | 1.5 | 0.5 | 100 | 0.25 | 100 | 12.5 | 0.5 | 0.25 | – | – | MIC (Salm.typh. R 172): 50 µg/mL; MIC (Prot.mirab. A 1200): 100 µg/mL; MIC (Staph.aureus A 2000 [1]): 0.23 µg/mL; MIC (Haem.Suis A 2096): 15 µg/mL; MIC (Actinob.equ. T 3): 12.5 µg/mL; MIC (Strep.haem A 1088): 0.06 µg/mL; MIC (Bruc. Suis A 2126): 6 µg/mL; MIC (Staph.aureus A 355 [5]): 0.3 µg/mL; MIC (Staph.aureus A 2001 [7]): 0.15 µg/mL
2 | CC1(C)S[C@@H]2[C@H](NC(=O)[C@H](N)c3ccccc3)C(=O)N2[C@H]1C(=O)O [Ampicillin, reference compound] | 0.06 (≈ 0.172 µM) | 0.15 (≈ 0.429 µM) | 25 (≈ 71.5 µM) | > 100 | 3 (≈ 8.59 µM) | 3 (≈ 8.59 µM) | 6 (≈ 17.2 µM) | 1 (≈ 2.86 µM) | 12.5 (≈ 35.8 µM) | 12.5 (≈ 35.8 µM) | 0.25 (≈ 0.715 µM) | 1.5 (≈ 4.29 µM) | 125 (≈ 358 µM) | 0.12 (≈ 0.343 µM) | 0.9 (≈ 2.58 µM) | 1.5 (≈ 4.29 µM) | 1 (≈ 2.86 µM) | 0.03 (≈ 0.0859 µM) | 1 (≈ 2.86 µM) | 1 (≈ 2.86 µM) | MIC (Strep.haem. A 266; [10]): < 0.015 µg/mL; MIC (Haem.infl. A 1030 [8]; micro serial dilution (in brackets), about 18 hours, 30° C. or 37° C.): 0.5 µg/mL (≈ 1.43 µM); MIC (Haem.infl. A 1030 [9]): < 125 µg/mL
3 | CC1=C(C(=O)O)N2C(=O)[C@@H](NC(=O)[C@H](N)c3ccccc3)[C@H]2SC1 [Cefalexin, reference compound] | – | – | – | – | – | – | – | – | – | – | – | – | – | – | – | – | – | – | 6 (≈ 17.3 µM) | 1.5 (≈ 4.32 µM) | MIC (Dipl.pneum. L 54; 24 h): 3 µg/mL (≈ 8.64 µM); MIC (Prot.mirab. L 93; [14]): 12.5 µg/mL (≈ 36 µM); MIC (Kleb.pneum. A 809; 24 h): 3 µg/mL (≈ 8.64 µM); MIC ([2]; 24 h): > 100 µg/mL; MIC (Esch.coli U 20; U20, 24 h, read-out: minimal inhibitory concentration (MIC), agar serial dilution, 24 hours, 37° C.): 12.5 µg/mL (≈ 36 µM); MIC (Prot.rettg. A 821): 12.5 µg/mL (≈ 36 µM); MIC (Staph.aureus A 355 [3]; read-out: minimal inhibitory concentration (MIC)): 12.5 µg/mL (≈ 36 µM); MIC (Strep.haem. A 266; 24 h): 0.25 µg/mL (≈ 0.72 µM); MIC (Strep. faec. L 80; 24 h): 100 µg/mL (≈ 288 µM); MIC (Pseud.aerug. 2396; 24 h): > 100 µg/mL; MIC (Prot.morg. 2241): > 100 µg/mL; MIC (Past.multo. A 723; 24 h): 3 µg/mL (≈ 8.64 µM); MIC (Haem.infl. A 1030 [8]): 125 µg/mL (≈ 360 µM); MIC (Staph.aureus A 2000 [4]): 12.5 µg/mL (≈ 36 µM); MIC (Pseud.aerug. H 10; 24 h): > 100 µg/mL; MIC (Salm.typh. R 127): 6 µg/mL (≈ 17.3 µM); MIC (Staph.aureus A 321): 1.5 µg/mL (≈ 4.32 µM); MIC (Prot.mirab. H 3; [14]): 25 µg/mL (≈ 72 µM); MIC (Salm.dubl. P 43; 24 h): 6 µg/mL (≈ 17.3 µM); MIC (Bac.Subt.ATCC 6633): 0.5 µg/mL (≈ 1.44 µM)
4 | Cc1noc(CC(=O)O)n1 [Example 1, 3-methyl-1,2,4-oxadiazol-5-yl-acetic acid] | – | – | – | – | – | – | – | – | – | – | – | – | – | – | – | – | – | – | – | – | pKa (pKa determined in water): 3.64
5 | Cc1nc(CC(=O)O)no1 [Example 4, 5-methyl-1,2,4-oxadiazol-3-yl-acetic acid] | – | – | – | – | – | – | – | – | – | – | – | – | – | – | – | – | – | – | – | – | pKa (pKa determined in water): ~3.4
6 | CC1(C)S[C@@H]2[C@H](NC(=O)Cc3nc(-c4c(Cl)cccc4Cl)no3)C(=O)N2[C@H]1C(=O)O [Example 11A, 6-{[3-(2,6-dichlorophenyl)-1,2,4-oxadiazol-5-yl]-acetamido}penicillanic acid] | 3 (≈ 6.37 µM) | > 100 | > 100 | > 100 | > 100 | > 100 | 3 (≈ 6.37 µM) | 25 (≈ 53 µM) | > 100 | > 100 | 3 (≈ 6.37 µM) | 3 (≈ 6.37 µM) | > 100 | 0.06 (≈ 0.127 µM) | > 100 | > 100 | – | 0.06 (≈ 0.127 µM) | 3 (≈ 6.37 µM) | 25 (≈ 53 µM) | MIC (Strep.haem. A 266; [10]): 1 µg/mL (≈ 2.12 µM); MIC (Haem.infl. A 1030 [9]): 100 µg/mL (≈ 212 µM)
